This is an account of results in patent US8557832B2, “Aryl methyl benzoquinazolinine M1 receptor positive allosteric modulators” (Merck Sharp & Dohme Corp., priority 2008, dated 2013).

The experiment deals with T1, acetylcholine muscarinic M1 receptor (Homo sapiens, UniProt P11229).
T1 construct: expressed in transfected cells; host or cells: CHOnfat (CHO cells; also called CHOK1/hM1)
T1 sequence (P11229 1-460): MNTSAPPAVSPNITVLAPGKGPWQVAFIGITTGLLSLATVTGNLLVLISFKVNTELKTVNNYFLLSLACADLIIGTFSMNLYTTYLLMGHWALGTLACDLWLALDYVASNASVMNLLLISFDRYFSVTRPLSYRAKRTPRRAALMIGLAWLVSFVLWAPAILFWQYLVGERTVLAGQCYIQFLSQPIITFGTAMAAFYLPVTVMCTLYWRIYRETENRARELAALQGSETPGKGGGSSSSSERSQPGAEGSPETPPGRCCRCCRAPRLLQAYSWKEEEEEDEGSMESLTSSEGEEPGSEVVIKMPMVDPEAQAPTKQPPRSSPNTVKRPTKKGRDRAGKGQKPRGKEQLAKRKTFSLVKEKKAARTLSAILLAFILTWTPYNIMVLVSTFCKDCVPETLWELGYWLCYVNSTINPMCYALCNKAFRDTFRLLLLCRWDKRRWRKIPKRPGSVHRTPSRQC
In words: muscarinic FLIPR assay: potentiation of acetylcholine (EC20)-stimulated intracellular Ca2+ in CHOnfat/hM1 cells. The experiment is classed as cell-based. As to conditions: 4 min preincubation, then EC20 acetylcholine (3 nM final), read-out: IP Value (inflection point). As for the experimental part: The assay studies the effect of one or several concentrations of test compounds on basal or acetylcholine-stimulated Ca^2+ levels using FLIPR.
Compounds are prepared and subjected to a preincubation period of 4 min. Thereafter, a single EC20 concentration of acetylcholine is added to each well (3 nM final). The intracellular Ca^2+ level of each sample is measured and compared to an acetylcholine control to determine any modulatory activity.
Cells: CHOnfat/hM1, hM2, hM3 or hM4 cells are plated 24 hr before the assay at a density of 18,000 cells/well (100 μL) in a 384 well plate. CHOnfat/hM1 and CHOnfat/hM3 Growth Medium: 90% DMEM (Hi Glucose); 10% HI FBS; 2 mM L-glutamine; 0.1 mM NEAA; Pen-Strep; and 1 mg/ml Geneticin, are added. For M2Gqi5CHOnfat and M4Gqi5CHOnfat cells, an additional 600 ug/ml hygromycin is added.
Equipment: 384 well plate, 120 μL addition plate; 96-well Whatman 2 ml Uniplate Incubator, 37° C., 5% CO2; Skatron EMBLA-384 Plate Washer; Multimek Pipetting System; Genesis Freedom 200 System; Mosquito System; Temo Nanoliter Pipetting System; and FLIPR^384 Fluorometric Imaging Plate Reader System are used.
Buffers. Assay Buffer: Hanks Balanced Salt Solution, with 20 mM Hepes, 2.5 mM Probenecid (Sigma P-8761) first dissolved in 1 N NaOH, 1% Bovine Serum Albumin (Sigma A-9647). Dye Loading Buffer: Assay Buffer plus 1% Fetal Bovine Serum and Fluo-4AM/Pluronic Acid Mixture. 2 mM Fluo-4AM ester stock in DMSO (Molecular Probes F-14202) Concentration of 2 μM in buffer for a final concentration of 1 μM in Assay. 20% Pluronic Acid Solution stock, with concentration of 0.04% in Buffer, 0.02% in Assay.
65 μL of 2 mM Fluo-4AM are mixed with 130 μL of 20% Pluronic Acid. The resulting solution and 650 μL FBS is added to the assay buffer for a total volume of 65 mL. Positive Controls: 4-Br-A23187: 10 mM in DMSO; final concentration 10 μM. Acetylcholine: 10 mM in water, working stock at both 20 μM and 30 μM in assay buffer, final concentration of 10 μM. This is used to check the maximum stimulation of the CHOK1/hM1 cells. 20 μM (2×) acetylcholine is added in the preincubation part of the assay, and the 30 μM (3×) stock is added in the second part. (EC20) Acetylcholine: 10 mM in water, working stock of 9 nM (3×), and final concentration in assay is 3 nM. This is used after the preincubation with test compounds. Addition of the EC20 Acetylcholine to each well with a test compound will ascertain any modulator activity. 24 wells contain 3 nM Acetylcholine alone as a control.
Determining Activity of Putative Compounds:
Screening Plate: Compounds are titrated in 96-well plates (columns 2-11), 100% DMSO, started at a concentration of 15 mM (150× stock concentration), and 3-fold serial dilutions using Genesis Freedom200 System. Four 96-well plates are combined into a 384-well plate using Mosquito Nanolitre Pipetting System by transferring 1 μl of serial diluted compounds to each well, and 1 mM acetylcholine (100× stock concentration) were added as a control. Using Temo, 49 μl assay buffer is added to each well of the 384-well plate right before assay.
In a 96-well Whatman 2 ml Uniplate, 9 nM Acetylcholine (3×) is pipetted into wells corresponding to the screening compounds, and into control wells. The 30 μM acetylcholine control (3×) is added into control wells, and the 3× agonist plate is transferred into a 384 well plate.
Cells are washed three times with 100 μL of buffer, leaving 30 μL of buffer in each well. Using Multimek, 30 μL of Dye Loading Buffer is added into each well and incubated at 37° C., 5% CO2 for up to one hr.
After 60 min, the cells are washed three times with 100 μL of buffer, leaving 30 μL of buffer in each well. The cell plate, screening plate, and agonist addition plates are placed on the platform in the FLIPR and the door closed. A signal test to check background fluorescence and basal fluorescence signal is performed. Laser intensity is adjusted if necessary. […]

Turning to `CC(=O)N[C@H]1CCCC[C@@H]1n1cnc2c(cc(Cc3ccc(Cl)nc3)c3ccccc32)c1=O` [Example 12, N-{(1S,2S)-2-[6-[(6-chloropyridin-3-yl)methyl]-4-oxobenzo[h]quinazolin-3(4H)-yl]cyclohexyl}acetamide], the EC50 was over 10000 nM.

Consider `COc1ccc(Cc2cc3c(=O)n(-c4cccnc4)cnc3c3ccccc23)cc1` [Example 4, 6-(4-methoxybenzyl)-3-pyridin-3-ylbenzo[h]quinazolin-4(3H)-one], for which the EC50 turned out to be 3500 nM.

As for `O=c1c2cc(Cc3ccc(CO)nc3)c3ccccc3c2ncn1[C@H]1CCCC[C@@H]1O` (racemic) [Example 15, rac-3-[trans-2-hydroxycyclohexyl]-6-{[6-(hydroxymethyl)pyridine-3-yl]methyl}benzo[h]quinazolin-4(3H)-one], the EC50 was determined as 24 nM.

In the case of `CC(C)c1ccc(Cc2cc3c(=O)n([C@H]4CCCC[C@@H]4O)cnc3c3ccccc23)cn1` [Example 13], the EC50 worked out at 21 nM.

On to `CS(=O)(=O)c1ccc(Cc2cc3c(=O)n([C@H]4CCCC[C@@H]4O)cnc3c3ccccc23)cn1` (racemic) [Example 8, rac-3-[trans-2-hydroxycyclohexyl]-6-{[6-methylsulfonyl)pyridine-3-yl]methyl}benzo[h]quinazolin-4(3H)-one], for which the EC50 came out at 93 nM.

Turning to `CC(=O)O[C@H]1CCCC[C@@H]1n1cnc2c(cc(Cc3ccc(Cl)nc3)c3ccccc32)c1=O` (racemic) [Example 11, trans-2-[6-[(6-chloropyridin-3-yl)methyl]-4-oxobenzo[h]quinazolin-3(4H)-yl]cyclohexyl rac-acetate], the EC50 worked out at 3600 nM.

On to `COc1ccc(Cc2cc3c(=O)n([C@H]4CCCC[C@@H]4O)cnc3c3ccccc23)cn1` (racemic) [Example 9, rac-3-[trans-2-hydroxycyclohexyl]-6-[(6-methoxypyridin-3-yl)methyl]benzo[h]quinazolin-4(3H)-one], for which the EC50 turned out to be 73 nM.

For `Cn1cc(Cc2cc3c(=O)n([C@H]4CCCC[C@@H]4O)cnc3c3ccccc23)ccc1=O` (racemic) [Example 16, rac-3-[trans-2-hydroxycyclohexyl]-6-[(1-methyl-6-oxo-1,6-dihydropyridin-3-yl)methyl]benzo[h]quinazolin-4(3H)-one], the EC50 came to 84 nM.

With `O=c1c2cc(Cc3ccc(-n4cccn4)nc3)c3ccccc3c2ncn1[C@H]1CCCC[C@@H]1O` (racemic) [Example 6, rac-3-[trans-2-hydroxycyclohexyl]-6-{[6-(1H-pyrazol-1-yl)pyridin-3-yl]methyl}benzo[h]quinazolin-4(3H)-one], the EC50 is 31 nM.

Turning to `COc1ccc(Cc2cc3c(=O)n(-c4cc(C)[nH]n4)cnc3c3ccccc23)cc1` [Example 3], the EC50 amounted to 1800 nM.

As to `Cc1nc2c(cc(Cc3ccc(Cl)nc3)c3ccccc32)c(=O)n1[C@H]1CCCC[C@@H]1O` [Example 19, 6-[(6-chloropyridin-3-yl)methyl]-3-[(1S,2S)-2-hydroxycyclohexyl]-2-methylbenzo[h]quinazolin-4(3H)-one], the EC50 turned out to be 1430 nM.

Take `Cc1ccc(Cc2cc3c(=O)n([C@H]4CCCC[C@@H]4O)cnc3c3ccccc23)c[n+]1[O-]` [Example 17, 3-[(1S,2S)-2-hydroxycyclohexyl]-6-[(6-methyl-1-oxidopyridin-3-yl)methyl]benzo[h]quinazolin-4(3H)-one]: the EC50 was 63 nM.

With `O=C1CCCCC1n1cnc2c(cc(Cc3ccc(Cl)nc3)c3ccccc32)c1=O` (stereo not shown) [Example 10, 6-[(6-chloropyridin-3-yl)methyl]-3-(2-oxycyclohexyl)benzo[h]quinazolin-4(3H)-one], the EC50 was found to be 1300 nM.

In the case of `O=c1c2cc(Cc3ccccn3)c3ccccc3c2ncn1[C@H]1CCCC[C@@H]1O` [Example 18, 3-[(1S,2S)-2-hydroxycyclohexyl]-6-(pyridin-2-ylmethyl)benzo[h]quinazolin-4(3H)-one], the EC50 is 228 nM.

For the molecule `CC(C)(O)c1ccc(Cc2cc3c(=O)n([C@H]4CCCC[C@@H]4O)cnc3c3ccccc23)cn1` [Example 14], the EC50 came to 46 nM.

Consider `Cc1ccc(Cc2cc3c(=O)n([C@H]4CCCC[C@@H]4O)cnc3c3ccccc23)cn1` [Example 2, 3-[(1S,2S)-2-hydroxycyclohexyl]-6-[(6-methylpyridin-3-yl)methyl]benzo[h]quinazolin-4(3H)-one], for which the EC50 was 21 nM.

Take `Cn1cc(-c2ccc(Cc3cc4c(=O)n([C@H]5CCCC[C@@H]5O)cnc4c4ccccc34)cn2)cn1` (racemic) [Example 5, rac-3-[trans-2-hydroxycyclohexyl]-6-{[6-(1-methyl-1H-pyrazol-4-yl)pyridine-3-yl]methyl}benzo[h]quinazolin-4(3H)-one]: the EC50 stood at 8 nM.

Consider `N#Cc1ccc(Cc2cc3c(=O)n([C@H]4CCCC[C@@H]4O)cnc3c3ccccc23)cn1` (racemic) [Example 7, rac-5-({3-[trans-2-hydroxycyclohexyl]-4-oxo-3,4-dihydrobenzo[h]quinazolin-6-yl}methyl)pyridine-2-carbonitrile], for which the EC50 came to 74 nM.

Consider `Cc1ccc(Cc2cc3c(=O)n([C@H]4CCCC[C@@H]4O)cnc3c3ccccc23)cn1` (racemic) [Example 1, rac-3-[trans-2-hydroxycyclohexyl]-6-[(6-methylpyridin-3-yl)methyl]benzo[h]quinazolin-4(3H)-one], for which the EC50 is 51 nM.
